This assay has as its target KRas G12D (Homo sapiens (Human), UniProt P01116, G12D). Put plainly: KRas G12D Binding Assay (TR-FRET displacement of Cy5 labelled tracer). The conditions noted are these: GDP-loaded KRAS G12D (amino acids 1:169), 60 minute incubation at 22° C. The procedure: After a 60 minute incubation at 22° C., the reaction was measured using a PerkinElmer EnVision multimode plate reader via TR-FRET dual wavelength detection, and the percent of control (POC) calculated using a ratiometric emission factor. […] The POC values were fit to a 4-parameter logistic curve and the IC50 value was determined as the concentration where the curve crosses 50 POC.
ND stands for “not determined.”
(In general: Time-resolved FRET reads energy transfer from a long-lived donor to a nearby acceptor.)

Sequence of KRas G12D (P01116 other isoform, or with tags, fused parts or gaps G12D): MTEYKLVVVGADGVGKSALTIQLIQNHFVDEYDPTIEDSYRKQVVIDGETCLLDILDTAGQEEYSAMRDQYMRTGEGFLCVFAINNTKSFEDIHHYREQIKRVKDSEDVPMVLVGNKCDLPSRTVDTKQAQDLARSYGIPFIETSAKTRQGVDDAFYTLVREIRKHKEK

Molecule `O[C@@H]1C[C@@H]2CN(c3nc(OCCc4nccn4CF)nc4c(F)c(-c5cccc6cccc(Cl)c56)ncc34)C[C@H]1N2` [Example 170, (1R,5R,6R)-3-(7-(8-chloronaphthalen-1-yl)-8-fluoro-2-(2-(1-(fluoromethyl)-1H-imidazol-2-yl)ethoxy)pyrido[4,3-d]pyrimidin-4-yl)-3,8-diazabicyclo[3.2.1]octan-6-ol] came in with an IC50 of 842 nM.
Then `Oc1cc(-c2ncc3c(N4CC5C[C@@H](n6cncn6)C(C4)N5)nc(OC[C@@]45CCCN4C[C@H](F)C5)nc3c2F)c2ccccc2c1` (mixture of isomers) [Example 333, 4-(4-((6R)-6-(1H-1,2,4-triazol-1-yl)-3,8-diazabicyclo[3.2.1]octan-3-yl)-8-fluoro-2-((2-fluorotetrahydro-1H-pyrrolizin-7a(5H)-yl)methoxy)pyrido[4,3-d]pyrimidin-7-yl)naphthalen-2-ol (racemic, trans)], with 450 nM; and `CNc1c(F)cccc1-c1ncc2c(N3C[C@H]4CC[C@@H](C3)N4)nc(OCC34CCCN3CCC4)nc2c1F` [Example 268, 2-(4-((1R,5S)-3,8-diazabicyclo[3.2.1]octan-3-yl)-8-fluoro-2-((hexahydro-1H-pyrrolizin-7a-yl)methoxy)pyrido[4,3-d]pyrimidin-7-yl)-6-fluoro-N-methylaniline], with 1550 nM.
In the case of `Nc1nc2c(-c3ncc4c(N5C[C@H]6CC[C@@H](C5)N6)nc(OCC56CCCN5CCC6)nc4c3F)cccc2s1` [Example 453, 4-(4-((1R,5S)-3,8-diazabicyclo[3.2.1]octan-3-yl)-8-fluoro-2-((hexahydro-1H-pyrrolizin-7a-yl)methoxy)pyrido[4,3-d]pyrimidin-7-yl)benzo[d]thiazol-2-amine] it was 27 nM.
For `C#Cc1cccc2cc(O)cc(-c3ncc4c(N5C[C@H]6CC[C@@H](C5)N6)nc(OC[C@@]56CCCN5C[C@H](F)C6)nc4c3F)c12` [Example 243], the IC50 is 0.4 nM.
In the case of `CO[C@H]1CN2CCC[C@]2(COc2nc(N3CC4CCC(C3)N4)c3cnc(-c4cc(O)cc5cccc(F)c45)c(F)c3n2)C1` (stereo in doubt) [Example 406, 4-(4-((1R,5S)-3,8-diazabicyclo[3.2.1]octan-3-yl)-8-fluoro-2-((2-methoxytetrahydro-1H-pyrrolizin-7a(5H)-yl)methoxy)pyrido[4,3-d]pyrimidin-7-yl)-5-fluoronaphthalen-2-ol] it was 0.9 nM; in that of `CN1C[C@H](NC(=O)c2ccccc2C=O)C[C@H]1COc1nc(N2C[C@H]3CC[C@@H](C2)N3)c2cnc(-c3cccc4cccc(Cl)c34)c(F)c2n1` [Example 355, N-((3R,5S)-5-(((4-((1R,5S)-3,8-diazabicyclo[3.2.1]octan-3-yl)-7-(8-chloronaphthalen-1-yl)-8-fluoropyrido[4,3-d]pyrimidin-2-yl)oxy)methyl)-1-methylpyrrolidin-3-yl)-2-formylbenzamide], 870 nM.
As for `Fc1c(-c2cccc(Cl)c2Cl)ncc2c(N3C[C@H]4CC[C@@H](C3)N4)nc(OCC34CCCN3CCC4)nc12` [Example 277, 4-((1R,5S)-3,8-diazabicyclo[3.2.1]octan-3-yl)-7-(2,3-dichlorophenyl)-8-fluoro-2-((hexahydro-1H-pyrrolizin-7a-yl)methoxy)pyrido[4,3-d]pyrimidine], the IC50 was 35.2 nM.
`CCc1cccc2cc(O)cc(-c3ncc4c(N5C[C@H]6CC[C@@H](C5)N6)ncnc4c3F)c12` [Example 449, 4-(4-((1R,5S)-3,8-diazabicyclo[3.2.1]octan-3-yl)-8-fluoropyrido[4,3-d]pyrimidin-7-yl)-5-ethylnaphthalen-2-ol] gave an IC50 of 71 nM.
Then `NCC#Cc1cccc2cccc(-c3ncc4c(N5C[C@H]6CC[C@@H](C5)N6)nc(OCC56CCCN5CCC6)nc4c3F)c12` [Example 241, 3-(8-(4-((1R,5S)-3,8-diazabicyclo[3.2.1]octan-3-yl)-8-fluoro-2-((tetrahydro-1H-pyrrolizin-7a(5H)-yl)methoxy)pyrido[4,3-d]pyrimidin-7-yl)naphthalen-1-yl)prop-2-yn-1-amine], with 79.2 nM; and `CC(C)c1ccc(O)cc1-c1ncc2c(N3CC4CCC(C3)N4)nc(OC[C@@]34CCCN3C[C@H](F)C4)nc2c1F` (stereo in doubt) [Example 399, 3-(4-((1R,5S)-3,8-diazabicyclo[3.2.1]octan-3-yl)-8-fluoro-2-((2-fluorotetrahydro-1H-pyrrolizin-7a(5H)-yl)methoxy)pyrido[4,3-d]pyrimidin-7-yl)-4-isopropylphenol], with 2.7 nM.
`CCc1c(F)ccc2cc(O)cc(-c3ncc4c(N5C[C@H]6CC[C@@H](C5)N6)nc(OC[C@]56CCCN5[C@@H](COC(=O)N(C)C)CC6)nc4c3F)c12` [Example 441, ((3R,7aR)-7a-(((4-((1R,5S)-3,8-diazabicyclo[3.2.1]octan-3-yl)-7-(8-ethyl-7-fluoro-3-hydroxynaphthalen-1-yl)-8-fluoropyrido[4,3-d]pyrimidin-2-yl)oxy)methyl)hexahydro-1H-pyrrolizin-3-yl)methyl dimethylcarbamate] registered an IC50 of 0.5 nM.
Molecule `C#Cc1c(F)ccc2cc(O)cc(-c3ncc4c(N5C[C@H]6CC[C@@H](C5)N6)nc(OCC56CCCN5CCC6)nc4c3F)c12` [Example 232, 4-(4-((1R,5S)-3,8-diazabicyclo[3.2.1]octan-3-yl)-8-fluoro-2-((tetrahydro-1H-pyrrolizin-7a(5H)-yl)methoxy)pyrido[4,3-d]pyrimidin-7-yl)-5-ethynyl-6-fluoronaphthalen-2-ol] showed an IC50 of 0.6 nM.
In the case of `C[C@@H]1C[C@@H]1c1ccccc1-c1ncc2c(N3C[C@H]4CC[C@@H](C3)N4)nc(OCC34CCCN3CCC4)nc2c1F` [Example 286, 4-((1R,5S)-3,8-diazabicyclo[3.2.1]octan-3-yl)-8-fluoro-2-((hexahydro-1H-pyrrolizin-7a-yl)methoxy)-7-(2-((S,2R)-2-methylcyclopropyl)phenyl)pyrido[4,3-d]pyrimidine] it was 17.2 nM; in that of `OCC#Cc1cccc2cccc(-c3ncc4c(N5C[C@H]6CC[C@@H](C5)N6)nc(OCC56CCCN5CCC6)nc4c3F)c12` [Example 193, 3-(8-(4-((1R,5S)-3,8-diazabicyclo[3.2.1]octan-3-yl)-8-fluoro-2-((tetrahydro-1H-pyrrolizin-7a(5H)-yl)methoxy)pyrido[4,3-d]pyrimidin-7-yl)naphthalen-1-yl)prop-2-yn-1-ol], 12.5 nM; in that of `O=C1CCC2(COc3nc(N4C[C@H]5CC[C@@H](C4)N5)c4cnc(-c5cccc6cccc(Cl)c56)c(F)c4n3)CCCN12` (stereo partly drawn) [Example 83, 7a-(((4-((1R,5S)-3,8-diazabicyclo[3.2.1]octan-3-yl)-7-(8-chloronaphthalen-1-yl)-8-fluoropyrido[4,3-d]pyrimidin-2-yl)oxy)methyl)hexahydro-3H-pyrrolizin-3-one bis(2,2,2-trifluoroacetate)], 8690 nM.
For the molecule `Fc1c(-c2c3ccccc3cc3[nH]ncc23)ncc2c(N3C[C@H]4CC[C@@H](C3)N4)nc(OCC34CCCN3CCC4)nc12` [Example 257, 4-(4-((1R,5S)-3,8-diazabicyclo[3.2.1]octan-3-yl)-8-fluoro-2-((hexahydro-1H-pyrrolizin-7a-yl)methoxy)pyrido[4,3-d]pyrimidin-7-yl)-1H-benzo[f]indazole], the IC50 was 5.1 nM.
In turn, `Cc1cccc(-c2ncc3c(N4C[C@H]5CC[C@@H](C4)N5)nc(OCC45CCCN4CCC5)nc3c2F)c1C(C)C` [Example 301, 4-((1R,5S)-3,8-diazabicyclo[3.2.1]octan-3-yl)-8-fluoro-2-((hexahydro-1H-pyrrolizin-7a-yl)methoxy)-7-(2-isopropyl-3-methylphenyl)pyrido[4,3-d]pyrimidine] came in with an IC50 of 35.1 nM.
In the case of `CC(C)c1ccccc1-c1ncc2c(N3C[C@H]4CC[C@@H](C3)N4)nc(OCC34CCCN3CCC4)nc2c1F` [Example 309, 4-((1R,5S)-3,8-diazabicyclo[3.2.1]octan-3-yl)-8-fluoro-7-(2-isopropylphenyl)-2-((tetrahydro-1H-pyrrolizin-7a(5H)-yl)methoxy)pyrido[4,3-d]pyrimidine] it was 205 nM.
As for `CN1C[C@H](OC(=O)NCCOCc2ccc(O)cc2)C[C@H]1COc1nc(N2C[C@H]3CC[C@@H](C2)N3)c2cnc(-c3cccc4cccc(Cl)c34)c(F)c2n1` [Example 260, (3R,5S)-5-(((4-((1R,5S)-3,8-diazabicyclo[3.2.1]octan-3-yl)-7-(8-chloronaphthalen-1-yl)-8-fluoropyrido[4,3-d]pyrimidin-2-yl)oxy)methyl)-1-methylpyrrolidin-3-yl (2-((4-hydroxybenzyl)oxy)ethyl)carbamate], the IC50 was 107 nM.
The molecule `CC(C)(F)c1ccccc1-c1ncc2c(N3CC4CCC(C3)N4)nc(OC[C@@]34CCCN3C[C@H](F)C4)nc2c1F` (stereo in doubt) [Example 407, 4-((1R,5S)-3,8-diazabicyclo[3.2.1]octan-3-yl)-8-fluoro-7-(2-(2-fluoropropan-2-yl)phenyl)-2-((2-fluorotetrahydro-1H-pyrrolizin-7a(5H)-yl)methoxy)pyrido[4,3-d]pyrimidine] yielded an IC50 of 560 nM.
In the case of `CN1CCC[C@H]1COc1nc(N2CC3CCC(C2)N3)c2cnc(-c3c(Cl)c(O)cc4ccccc34)c(F)c2n1` [Example 337, 4-(4-(3,8-diazabicyclo[3.2.1]octan-3-yl)-8-fluoro-2-(((S)-1-methylpyrrolidin-2-yl)methoxy)pyrido[4,3-d]pyrimidin-7-yl)-3-chloronaphthalen-2-ol] it was 2.2 nM.
`O=C(CCl)N1CCC(Oc2nc(N3C[C@H]4CC[C@@H](C3)N4)c3cnc(-c4cccc5cccc(Cl)c45)c(F)c3n2)CC1` [Example 163, 1-(4-((4-((1R,5S)-3,8-diazabicyclo[3.2.1]octan-3-yl)-7-(8-chloronaphthalen-1-yl)-8-fluoropyrido[4,3-d]pyrimidin-2-yl)oxy)piperidin-1-yl)-2-chloroethan-1-one bis(2,2,2-trifluoroacetate)] returned an IC50 of 5550 nM.

By IC50 is commonly meant the concentration that inhibits the measured activity by half. A lower IC50 goes with greater potency.

For the origin of these results see patent publication US20230279025A1, “KRAS G12D INHIBITORS” (Mirati Therapeutics, Inc., priority 2020, published 2023).
